Series [1] relates to Hepatitis B virus. Description: Primary anti-Hepatitis B virus assay (primary screen). The class given is cell-based. As to conditions: data confirmed in the secondary assay. On the procedure:
(§1) Hepatitis B antiviral assays (Korba & Gerin, 1992, Antivir. Res. 19:55) are conducted using confluent cultures of 2.2.15 cells (genotype ayw; parental cell HepG2) maintained on 96-well flat-bottomed tissue culture plates (confluence in this culture system is required for active, high levels of Hepatitis B replication equivalent to that observed in chronically-infected individuals (Sells, et al., 1988, J. Virol. 62:2836; Korba and Gerin, 1992, Antivir. Res. 19:55). Cultures are treated for 7 days. Typically, 4 doses (10-fold or 3-fold steps), in triplicate are used. Hepatitis B DNA levels in the culture medium (representing Hepatitis B virion production) are assessed by quantitative blot hybridization 24 hrs. after the last treatment. Cytotoxicity is assessed by uptake of neutral red dye 24 hr. following the last treatment. Lamivudine (LMV) is used as the standard assay control, but other control compounds are also available.
EC50, EC90 and CC50 values are calculated by linear regression analysis (MS EXCEL®, QuattroPro®) using data combined from all treated cultures (Korba & Gerin, 1992, Antivir. Res. 19:55; Okuse, et al., 2005, Antivir. Res. 65:23). Standard deviations for EC50 and EC90 values are calculated from the standard errors generated by the regression analyses. […]

Series [2] has as its system Hepatitis B virus. Description: Secondary anti-Hepatitis B virus assay, quantitative polymerase chain reaction (intracellular DNA). The format is cell-based, Hepatitis B virus (Hepatitis B-adr). As to conditions: for Sl50 - CC50/EC50 / Sl90 - CC50/EC90: selectivity index; for EC50 / EC90: Hepatitis B-adr, intracellular DNA by qPCR, vehicle DMSO, unit from conc. ranges in the 1st table; for EC50: read-out: EC50 - compound concentration that reduces viral replication by 50%; for EC90: read-out: EC90 - compound concentration that reduces viral replication by 90%. On the procedure:
as §1
EC50, EC90 and CC50 values are calculated by linear regression analysis (MS EXCEL®, QuattroPro®) using data combined from all treated cultures (Korba & Gerin, 1992, Antivir. Res. 19:55; Okuse, et al., 2005, Antivir. Res. 65:23). Standard deviations for EC50 and EC90 values are calculated from the standard errors generated by the regression analyses. EC50 and EC90 are drug concentrations at which a 2-fold, or a 10-fold depression of Hepatitis B DNA (relative to the average levels in untreated cultures), respectively, is observed. CC50 is the drug concentration at which a 2-fold lower level of neutral red dye uptake (relative to the average levels in untreated cultures) is observed. The Selectivity index (S.I.) is calculated as CC50/EC90 since at least a 3-fold depression of Hepatitis B DNA levels is typically required to achieve statistical significance in this assay system (Korba & Gerin, 1992, Antivir. Res. 19:55).
Confluent cultures of HepG2 2.2.15 cells maintained on 48-well flat-bottomed tissue culture plates are treated as described for the primary assay. Hepatitis B virion DNA levels in the culture medium and cytotoxicity are assessed as described for the primary assay. […] Res. 19:55). EC50, EC90, and S.I. values are calculated for both virion DNA and intracellular Hepatitis B DNA replication intermediates.
A general note: In qPCR the cycle at which signal appears reflects the starting amount.

Series [3] can be described thus: Cell Titer 96 (Toxicity) in the secondary assay. As to conditions: human, HepG2 2.2.15 cells (confluent cultures), unit from conc. ranges in the 1st table, read-out: CC50 - compound concentration that reduces cell viability by 50%. The format is cell-based.
A further series concerns HepG2 2.2.15. Description: Cell Titer 96 (Toxicity) in the secondary assay. The class given is cell-based. The following applies: HepG2 2.2.15 cells, unit from conc. ranges in the 1st table, read-out: CC50 - compound concentration that reduces cell viability by 50%.
Setting [4] is: Hepatitis B virus, HepG2 2.2.15, HepG2 2.2.15 cells.
The mark [5] stands for this setting: HepG2 2.2.15 cells, listed as 3TC (1).
Setting [6] is: HepG2 2.2.15 cells, listed as 3TC (2).
Setting [7] is: HepG2 2.2.15 cells, listed as 3TC (3).

Where two headings read alike, the source gives them in different places. Some results are limits rather than exact numbers.

As to `CCC[C@H](Nc1nc(-c2ccc(NC(=O)NCC)c(OC)c2)ncc1C)c1cccnc1` (stereo in doubt) [Compound 1A, 1-ethyl-3-(2-methoxy-4-(5-methyl-4-((1-(pyridine-3-yl)butyl)amino)pyrimidin-2-yl)phenyl)urea], the “activity in the primary screen” value in the series on Hepatitis B virus [1] is given as “active”. Also, in the series with Hepatitis B virus [2] (HepG2 2.2.15 cells), the “Sl50 - CC50/EC50” value is given as more than 80 and the “Sl90 - CC50/EC90” value came out at 1. In the series on Hepatitis B virus [2] (setting [4]), the EC50 is less than 320 nM and the EC90 amounted to 710 nM. In addition, in series [3], the CC50 at 7 days turned out to be 25400 nM.
Take `Nc1ccn([C@@H]2CS[C@H](CO)O2)c(=O)n1` [Compound 3TC, 2′,3′-dideoxy-3′-thiacytidine]: the EC50 with Hepatitis B virus [2] (setting [5]) stood at 40 nM; in the series on Hepatitis B virus [2] (setting [7]), 50 nM; in the series with Hepatitis B virus [2] (setting [4]), 60 nM. The EC90 was more than 500 nM with Hepatitis B virus [2] (setting [5]), more than 1000 nM with Hepatitis B virus [2] (setting [6]) and more than 2000 nM with Hepatitis B virus [2] (setting [7]). Besides, the “Sl90 - CC50/EC90” value with Hepatitis B virus [2] (HepG2 2.2.15 cells) came to 1. The “Sl50 - CC50/EC50” value in the series on Hepatitis B virus [2] (setting [5]) was more than 12; in the series on Hepatitis B virus [2] (setting [6]), more than 15; with Hepatitis B virus [2] (setting [7]), more than 43. In addition, the CC50 is more than 500 nM in the series on HepG2 2.2.15 (listed as 3TC (1)), more than 1000 nM with HepG2 2.2.15 (listed as 3TC (2)) and more than 2000 nM in the series with HepG2 2.2.15 (listed as 3TC (3)).

These data come from patent US20160303122A1, “TREATMENT OF HEPATITIS B VIRAL” (Southern Research Institute, priority 2015, published 2016).
